In patent US20260317344A1, “EGFR INHIBITORS FOR TREATING DISEASE” (BLOSSOMHILL THERAPEUTICS, INC., priority 2023, published 2026):

Tests used:
EGFR (L858R) = EGFR (L858R) (Homo sapiens, UniProt P00533, L858R); test: HotSpot radiometric kinase assay, inhibition of EGFR L858R mutant; format: biochemical; conditions: 33P ATP, room temperature, 120 m
Method: (§1) Biochemical Assays for inhibition of wild-type and mutant EGFRs
(§2) Briefly, specific kinase/substrate pairs along with required cofactors were prepared in reaction buffer; 20 mM HEPES pH 7.5, 10 mM […], 1 mM EGTA, 0.02% Brij35, 0.02 mg/ml BSA, 0.1 mM Na3VO4, 2 mM DTT, 1% DMSO. Compounds were delivered into the reaction, followed ~20 minutes later by addition of a mixture of ATP (Sigma, St. Louis MO) and ^33P ATP (Perkin Elmer, Waltham MA) to a final concentration of […]. Reactions were carried out at room temperature for 120 m, followed by spotting of the reactions onto P81 ion exchange filter paper (Whatman Inc., Piscataway, NJ). Unbound phosphate was removed by extensive washing of filters in 0.75% phosphoric acid. […] IC50 values and curve fits were obtained using Prism (GraphPad Software).

EGFR (L858R/T790M) = EGFR (L858R/T790M) (Homo sapiens, UniProt P00533, L858R/T790M); test: HotSpot radiometric kinase assay, inhibition of EGFR L858R/T790M mutant; format: biochemical; conditions: 33P ATP, room temperature, 120 m
Method: as §1, §2

EGFR (L858R/T790M/C797S) = EGFR (L858R/T790M/C797S) (Homo sapiens, UniProt P00533, C797S/L858R/T790M); test: HotSpot radiometric kinase assay, inhibition of EGFR L858R/T790M/C797S mutant; format: biochemical; conditions: 33P ATP, room temperature, 120 m
Procedure, shortened: (§3)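 Kinase/substrate pairs in 20 mM HEPES pH 7.5, 10 mM MgCl2, 1 mM EGTA, 0.02% Brij35, 0.02 mg/ml BSA, 0.1 mM Na3VO4, 2 mM DTT, 1% DMSO, preincubated ~20 min with compound. Reaction started with ATP/33P-ATP ([…]), run 120 min at room temperature; phosphorylation read by P81 filter binding, IC50 from curve fits.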

EGFR (D746-750) = EGFR (D746-750) (Homo sapiens, UniProt P00533, DEL746-750); test: HotSpot radiometric kinase assay, inhibition of EGFR 746-750 mutant; format: biochemical; conditions: 33P ATP, room temperature, 120 m
Procedure, shortened: as §3

EGFR (D746-750/C797S) = EGFR (D746-750/C797S) (Homo sapiens, UniProt P00533, C797S/DEL746-750); test: HotSpot radiometric kinase assay, inhibition of EGFR 746-750/C797S mutant; format: biochemical; conditions: 33P ATP, room temperature, 120 m
Procedure, shortened: as §3

EGFR (D770_N771insNPG) = EGFR (D770_N771insNPG) (Homo sapiens, UniProt P00533, INS770NPG); test: HotSpot radiometric kinase assay, inhibition of EGFR (D770_N771insNPG) mutant; format: biochemical; conditions: 33P ATP, room temperature, 120 m
Procedure, shortened: as §3

EGFR WT = EGFR WT (Homo sapiens, UniProt P00533); test: HotSpot radiometric kinase assay, inhibition of EGFR WT; format: biochemical; conditions: 33P ATP, room temperature, 120 m
Method: as §1, §2

[1] = target: T1, pEGFR, PC-9 cells (d746-750 EGFR) (Homo sapiens, UniProt P00533, DEL746-750); test: Cellular EGFR phosphorylation assay (LANCE Ultra TR-FRET) in PC-9 cells; format: cell-based; conditions: 4 hours at 37° C., read-out: PC-9 pEGFR IC50
T1 construct: pEGFR (Tyr1068) TR-FRET
Procedure, shortened: (§4)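 Phospho-EGFR (Tyr1068) measured by TR-FRET in lysates after 4 h compound exposure at 37° C (9 doses, 3-fold steps). A431 cells, seeded at 30 thousand per well, received 40 ng/mL EGF for the last 10 min; PC-9 and NCI-H1975 seeded at 50 thousand per well, unstimulated. IC50 values reported.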

[2] = target: T2, pEGFR, NCI-H1975 cells (L858R/T790M EGFR) (Homo sapiens, UniProt P00533, L858R/T790M); test: Cellular EGFR phosphorylation assay (LANCE Ultra TR-FRET) in NCI-H1975 cells; format: cell-based; conditions: 4 hours at 37° C., read-out: H1975 pEGFR IC50
T2 construct: pEGFR (Tyr1068) TR-FRET
Procedure, shortened: as §4

[3] = target: T3, pEGFR, A431 cells (wildtype EGFR) (Homo sapiens, UniProt P00533); test: Cellular EGFR phosphorylation assay (LANCE Ultra TR-FRET) in A431 cells; format: cell-based; conditions: 4 hours at 37° C., 40 ng/mL EGF for the final 10 minutes, read-out: A431 pEGFR IC50
T3 construct: pEGFR (Tyr1068) TR-FRET
Procedure, shortened: as §4

PC-9 cells = test: 5-Day CellTiter Glo (CTG) cell proliferation assay, PC-9; format: cell-based; conditions: Homo sapiens; PC-9 cells (d746-750 EGFR), 5-day CTG proliferation, 120 hours; read-out: PC-9 IC50
Procedure, shortened: (§5)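 Luminescent ATP signal (CellTiter-Glo 2.0) after 120 hours of compound exposure gave IC50 values. PC-9 and HCC827 harbour EGFR d746-750; NCI-H1975 harbours L858R/T790M.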

NCI-H1975 cells = test: 5-Day CellTiter Glo (CTG) cell proliferation assay, NCI-H1975; format: cell-based; conditions: Homo sapiens; NCI-H1975 cells (L858R/T790M EGFR), 5-day CTG proliferation, 120 hours; read-out: H1975 IC50
Procedure, shortened: as §5

HCC827 cells = test: 5-Day CellTiter Glo (CTG) cell proliferation assay, HCC827; format: cell-based; conditions: Homo sapiens; HCC827 cells (d746-750 EGFR), 5-day CTG proliferation, 120 hours; read-out: HCC827 IC50
Procedure, shortened: as §5

[4] = test system: BaF3 cells with engineered EGFR L858R/T790M/C797S; test: 3-Day CellTiter Glo (CTG) cell proliferation assay, BaF3 EGFR L858R/T790M/C797S; format: cell-based; conditions: Mus musculus, 3-day CTG proliferation, 72 hours
Procedure, shortened: (§6)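 Growth inhibition in transgene-bearing BaF3 lines was scored after three days of compound treatment by CellTiter-Glo 2.0 ATP luminescence, yielding IC50 values.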

[5] = test system: BaF3 cells with engineered EGFR L858R/C797S; test: 3-Day CellTiter Glo (CTG) cell proliferation assay, BaF3 EGFR L858R/C797S; format: cell-based; conditions: Mus musculus, 3-day CTG proliferation, 72 hours
Procedure, shortened: as §6

[6] = test system: BaF3 cells with engineered EGFR d746-750/T790M; test: 3-Day CellTiter Glo (CTG) cell proliferation assay, BaF3 EGFR d746-750/T790M; format: cell-based; conditions: Mus musculus; BaF3 EGFR d746-750/T790M cells, 3-day CTG proliferation, 72 hours
Procedure, shortened: as §6

T2 sequence (P00533 25-1210 T790M/L858R): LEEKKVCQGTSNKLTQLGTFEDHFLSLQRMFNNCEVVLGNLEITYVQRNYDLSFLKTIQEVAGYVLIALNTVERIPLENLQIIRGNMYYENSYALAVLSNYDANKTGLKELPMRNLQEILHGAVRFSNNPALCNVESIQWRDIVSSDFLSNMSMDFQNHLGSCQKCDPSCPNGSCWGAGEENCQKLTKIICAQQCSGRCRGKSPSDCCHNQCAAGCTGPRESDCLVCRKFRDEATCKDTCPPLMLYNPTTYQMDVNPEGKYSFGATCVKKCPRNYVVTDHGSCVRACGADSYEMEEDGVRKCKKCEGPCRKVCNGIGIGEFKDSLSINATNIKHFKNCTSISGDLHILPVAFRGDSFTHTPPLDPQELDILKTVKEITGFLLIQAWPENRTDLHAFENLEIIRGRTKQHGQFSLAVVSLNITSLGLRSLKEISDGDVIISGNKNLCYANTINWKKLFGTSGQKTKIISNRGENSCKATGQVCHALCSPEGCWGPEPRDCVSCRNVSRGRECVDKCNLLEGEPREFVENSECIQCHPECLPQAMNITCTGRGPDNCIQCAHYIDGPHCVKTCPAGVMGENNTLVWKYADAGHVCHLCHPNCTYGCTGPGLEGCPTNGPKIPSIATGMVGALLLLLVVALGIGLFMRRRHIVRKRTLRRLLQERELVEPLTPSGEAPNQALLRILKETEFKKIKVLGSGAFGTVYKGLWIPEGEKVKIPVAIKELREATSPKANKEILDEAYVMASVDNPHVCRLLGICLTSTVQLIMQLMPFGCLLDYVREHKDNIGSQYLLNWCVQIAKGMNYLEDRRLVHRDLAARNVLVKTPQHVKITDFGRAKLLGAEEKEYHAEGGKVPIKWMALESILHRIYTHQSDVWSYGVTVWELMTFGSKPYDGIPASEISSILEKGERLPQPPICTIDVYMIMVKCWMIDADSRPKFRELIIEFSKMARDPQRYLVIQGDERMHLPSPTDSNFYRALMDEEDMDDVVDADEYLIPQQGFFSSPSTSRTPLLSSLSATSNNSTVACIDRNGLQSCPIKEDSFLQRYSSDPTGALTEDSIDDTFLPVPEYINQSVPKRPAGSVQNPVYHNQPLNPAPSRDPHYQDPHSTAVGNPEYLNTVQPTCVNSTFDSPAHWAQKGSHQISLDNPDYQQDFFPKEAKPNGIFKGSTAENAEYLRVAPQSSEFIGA
Sequence of EGFR (L858R/T790M) (P00533 25-1210 T790M/L858R): as above
Sequence of EGFR (D770_N771insNPG) (P00533 with tags, fused parts or gaps INS770NPG limits assumed): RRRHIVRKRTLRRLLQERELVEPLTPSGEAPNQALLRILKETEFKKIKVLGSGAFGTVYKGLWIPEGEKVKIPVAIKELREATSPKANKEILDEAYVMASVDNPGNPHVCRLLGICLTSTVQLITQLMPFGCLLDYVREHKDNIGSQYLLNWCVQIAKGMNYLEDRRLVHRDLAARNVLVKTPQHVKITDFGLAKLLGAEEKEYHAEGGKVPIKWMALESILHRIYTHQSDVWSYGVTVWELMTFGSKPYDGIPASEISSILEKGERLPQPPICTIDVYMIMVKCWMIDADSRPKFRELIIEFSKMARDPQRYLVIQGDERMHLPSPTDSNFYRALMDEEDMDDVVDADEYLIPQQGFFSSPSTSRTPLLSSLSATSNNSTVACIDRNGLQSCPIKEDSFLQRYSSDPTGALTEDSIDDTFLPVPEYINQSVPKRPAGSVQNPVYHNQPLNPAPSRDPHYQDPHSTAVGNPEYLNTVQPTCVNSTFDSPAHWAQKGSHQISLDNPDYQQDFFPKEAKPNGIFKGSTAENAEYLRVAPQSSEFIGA
Sequence of EGFR (L858R) (P00533 25-1210 L858R): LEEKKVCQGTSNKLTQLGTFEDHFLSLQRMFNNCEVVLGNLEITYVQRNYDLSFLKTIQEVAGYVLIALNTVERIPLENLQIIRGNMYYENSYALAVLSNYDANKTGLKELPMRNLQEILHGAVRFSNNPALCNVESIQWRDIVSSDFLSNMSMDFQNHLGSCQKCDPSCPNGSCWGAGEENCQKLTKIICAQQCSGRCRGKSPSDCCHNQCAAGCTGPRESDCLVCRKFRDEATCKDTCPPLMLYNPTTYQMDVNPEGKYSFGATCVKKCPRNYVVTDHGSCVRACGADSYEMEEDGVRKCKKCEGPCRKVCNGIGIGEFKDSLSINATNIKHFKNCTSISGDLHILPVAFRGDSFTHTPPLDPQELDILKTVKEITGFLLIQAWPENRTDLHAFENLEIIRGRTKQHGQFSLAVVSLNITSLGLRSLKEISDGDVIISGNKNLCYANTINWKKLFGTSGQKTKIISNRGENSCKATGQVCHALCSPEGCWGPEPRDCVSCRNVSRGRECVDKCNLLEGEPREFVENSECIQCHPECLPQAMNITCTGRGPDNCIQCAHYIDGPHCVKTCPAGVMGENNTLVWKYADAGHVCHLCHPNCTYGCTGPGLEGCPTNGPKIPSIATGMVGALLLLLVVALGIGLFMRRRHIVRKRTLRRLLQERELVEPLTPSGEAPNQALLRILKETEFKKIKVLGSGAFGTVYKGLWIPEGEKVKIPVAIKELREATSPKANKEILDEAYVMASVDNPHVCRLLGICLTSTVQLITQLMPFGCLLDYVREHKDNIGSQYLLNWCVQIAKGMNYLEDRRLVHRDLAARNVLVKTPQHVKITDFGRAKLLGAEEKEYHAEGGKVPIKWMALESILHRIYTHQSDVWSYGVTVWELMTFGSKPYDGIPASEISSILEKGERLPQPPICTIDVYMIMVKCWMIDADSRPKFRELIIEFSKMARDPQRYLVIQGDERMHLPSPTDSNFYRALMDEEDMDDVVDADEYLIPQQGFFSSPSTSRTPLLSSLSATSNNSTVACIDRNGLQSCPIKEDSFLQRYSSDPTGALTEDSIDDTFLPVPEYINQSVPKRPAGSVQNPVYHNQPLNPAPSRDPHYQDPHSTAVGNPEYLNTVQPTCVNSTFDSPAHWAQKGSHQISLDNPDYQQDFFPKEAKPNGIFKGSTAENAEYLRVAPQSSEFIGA

Structure (SMILES) | IC50 (EGFR (L858R)) [nM] | IC50 (EGFR (L858R/T790M)) [nM] | IC50 (EGFR (L858R/T790M/C797S)) [nM] | IC50 (EGFR (D746-750)) [nM] | IC50 (EGFR (D746-750/C797S)) [nM] | IC50 (EGFR (D770_N771insNPG)) [nM] | IC50 (EGFR WT) [nM] | IC50 [1] [nM] | IC50 [2] [nM] | IC50 [3] [nM] | IC50 (PC-9 cells) [nM] | IC50 (NCI-H1975 cells) [nM] | IC50 (HCC827 cells) [nM] | IC50 [4] [nM] | IC50 [5] [nM] | IC50 [6] [nM]
CCOc1nn([C@@H](C)CO)c2c1/C=C/c1n[nH]c3cnc(cc13)-c1c(C)nn(C)c1O[C@@H](C)CN(C)C2 [Ex. 27, (2S)-2-[(10S,17E)-16-ethoxy-6,8,10,12-tetramethyl-2,8,10,11,12,13-hexahydro-14H-5,3-(azenometheno)tripyrazolo[3,4-f:3′,4′-j:4″,3″-n][1,4]oxazacyclopentadecin-14-yl]propan-1-ol] | 0.89 | 0.51 | 0.45 | 0.28 | 0.9 | 0.27 | 0.31 | 0.91 | 1.85 | 12.5 | 0.45 | 0.97 | 0.26 | 0.73 | 0.07 | 0.55
CCN1Cc2c(c(C)nn2CCO)/C=C/c2n[nH]c3cnc(cc23)-c2c(C)nn(C)c2O[C@@H](C)C1 [Ex. 13, 2-[(10S,17E)-12-ethyl-6,8,10,16-tetramethyl-2,8,10,11,12,13-hexahydro-14H-5,3-(azenometheno)tripyrazolo[3,4-f:3′,4′-j:4″,3″-n][1,4]oxazacyclopentadecin-14-yl]ethan-1-ol] | 0.16 | 0.2 | 0.19 | 0.41 | 0.16 | 0.07 | 0.05 | 1 | 2.09 | 12 | 0.38 | 4.27 | 0.26 | 1.05 | 0.1 | 1.46
CCOc1nn([C@@H](C)CO)c2c1/C=C/c1n[nH]c3cnc(cc13)-c1c(C)nn(C)c1O[C@@H](C)CN(C1CC1)C2 [Ex. 110, (2S)-2-[(10S,17E)-12-cyclopropyl-16-ethoxy-6,8,10-trimethyl-2,8,10,11,12,13-hexahydro-14H-5,3-(azenometheno)tripyrazolo[3,4-f:3′,4′-j:4″,3″-n][1,4]oxazacyclopentadecin-14-yl]propan-1-ol] | 0.36 | 0.5 | 0.25 | 0.46 | 0.56 | 0.18 | 0.09 | 1.12 | 1.76 | 1.42 | 0.47 | 1.07 | 0.31 | 0.71 | 0.07 | 0.61
CCOc1nn(CCO)c2c1/C=C/c1n[nH]c3c(C)nc(cc13)-c1c(C)nn(C)c1O[C@@H](C)CN(C)C2 [Ex. 47, 2-[(10S,17E)-16-ethoxy-6,8,10,12,20-pentamethyl-2,8,10,11,12,13-hexahydro-14H-5,3-(azenometheno)tripyrazolo[3,4-f:3′,4′-j:4″,3″-n][1,4]oxazacyclopentadecin-14-yl]ethan-1-ol] | 0.2 | 0.32 | 0.28 | 0.43 | 0.27 | 0.2 | 0.18 | 1.13 | 1.06 | 15.2 | 1.8 | 1.77 | 0.57 | 0.62 | 0.07 | 1.5
CCOc1nn([C@@H](C)CO)c2c1/C=C/c1n[nH]c3cnc(cc13)-c1c(C)nn(C)c1O[C@H](C)CN(CC)C2 [Ex. 24, (2S)-2-[(10R,17E)-16-ethoxy-12-ethyl-6,8,10-trimethyl-2,8,10,11,12,13-hexahydro-14H-5,3-(azenometheno)tripyrazolo[3,4-f:3′,4′-j:4″,3″-n][1,4]oxazacyclopentadecin-14-yl]propan-1-ol] | 1.68 | 0.94 | 0.57 | 0.51 | 1.08 | 0.62 | 0.5 | 1.5 | 1.6 | 22.4 | 0.47 | 1.26 | 0.27 | 0.78 | 0.11 | 0.41
CCN1Cc2c(c(OC(C)C)nn2CCO)/C=C/c2n[nH]c3cnc(cc23)-c2cnn(C)c2O[C@H](C)C1 [Ex. 10, 2-[(10R,17E)-12-ethyl-8,10-dimethyl-16-[(propan-2-yl)oxy]-2,8,10,11,12,13-hexahydro-14H-5,3-(azenometheno)tripyrazolo[3,4-f:3′,4′-j:4″,3″-n][1,4]oxazacyclopentadecin-14-yl]ethan-1-ol] | 0.46 | 0.46 | 0.51 | 0.64 | 0.27 | 0.4 | 0.35 | 10.8 | 4.82 | 51.9 | – | – | – | 1.89 | – | 0.69
